From ChEMBL document CHEMBL1136126, “Development of 3D-QSAR models in cyclic ureidobenzenesulfonamides: human beta3-adrenergic receptor agonist” (Bioorg Med Chem Lett, 2003)

How the values were obtained:
[1] = target: T1, Beta-3 adrenergic receptor (Homo sapiens, UniProt P13945); assay: (§1) In vitro effective concentration against beta-3 adrenergic receptor.
[2] = target: T1, Beta-3 adrenergic receptor; assay: as §1; remark: listed apart in the source

T1 sequence (P13945 whole entry): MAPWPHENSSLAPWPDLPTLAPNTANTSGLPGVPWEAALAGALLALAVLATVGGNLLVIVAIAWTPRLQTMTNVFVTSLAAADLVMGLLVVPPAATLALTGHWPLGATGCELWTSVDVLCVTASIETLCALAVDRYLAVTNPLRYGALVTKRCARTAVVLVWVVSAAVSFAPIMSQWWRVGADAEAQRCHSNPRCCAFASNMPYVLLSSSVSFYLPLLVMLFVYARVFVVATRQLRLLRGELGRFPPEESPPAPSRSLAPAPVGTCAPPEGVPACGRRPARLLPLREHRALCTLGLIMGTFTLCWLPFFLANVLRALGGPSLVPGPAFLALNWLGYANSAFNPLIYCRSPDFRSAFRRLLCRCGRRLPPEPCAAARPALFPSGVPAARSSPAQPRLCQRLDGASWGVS

Row | EC50 [1] [nM] | EC50 [2] [nM] | Structure (SMILES)
1 | 5.4 | 5.37 | CCCCCCCCN1CNN(c2ccc(S(=O)(=O)Nc3ccc(CCNC[C@H](O)c4cccnc4)cc3)cc2)C1=O
2 | – | 275 | CCCCCCN1CC(=O)N(c2ccc(S(=O)(=O)Nc3ccc(CCNC[C@H](O)c4cccnc4)cc3)cc2)C1=O
3 | 15 | 15.1 | CCCCCCCCN1NCN(c2ccc(S(=O)(=O)Nc3ccc(CCNC[C@H](O)c4cccnc4)cc3)cc2)C1=O
